Laboratory results taken from patent US9844522B2 (LIFE & BRAIN GMBH, priority 2012, dated 2017).
Entries after “also recorded” stand apart in the source; their conditions may differ. Like-named read-outs stand apart in the source and are kept apart here.

Legend:
21 pGBMs = assay: Pharmacodynamic analysis (alamarBlue dose-response, IC50); type: cell-based; settings: Homo sapiens, 120 h
Method: (§1) For pharmacodynamic analysis, 5×10^4 cells were plated in 12-well-plates at 24 hours before application of compound-series and compound combinations, respectively. alamarBlue®-based analysis was conducted at 3-5 days post treatment. Experiments were performed in triplicates. IMC50 was defined as the compound concentration that reduced the metabolic activity by 50% compared to control conditions and determined via data analysis in GraphPad Prism 4.0.

[1] = test system: non-malignant human cell sample #155; assay: Annexin V/Hoechst FACS analysis; type: cell-based; settings: 5 days after application
Method: (B) CYCLIN D1 (CCND1)-western blot of cell extracts derived at this time point. […] Inset: mean data (n=5 pGBMs; **p<0.01). […] Right inset: representative scatter plots (#046). […] The graph exemplifies the time course of scratch closure for case #046 (mean±SD; triplicate analysis).
1×10^5 cells were collected at 5 days following compound application, settled by centrifugation, re-suspended in 100 μl AnnexinV buffer and incubated with 5 μl Annexin V-FITC for 1 hour at room temperature. To distinguish between living and dead cells, labeling with 1.2 μg/ml Hoechst 33258 was used Annexin V presence was determined using standard conditions in a LSRII equipped with FACSDiva Software (BD Bioscience). 2×10^4 cells were counted per measurement. The term ‘avital cells’ was used for Annexin V^+−, Annexin V^+/H33258^+, and H33258^+ cells.

WNT/CTNNB1 target genes = assay: qRT-PCR of β-catenin target genes; type: cell-based, human; settings: pGBMs
Excerpt: (§2) It is known that a circumscribed number of transcription factors and associated signaling pathways are overactive in human cancer cells (21). […] Characteristic for the active state of this mechanism, known to play an important role for tumor invasion, is an enhanced nuclear accumulation of β-catenin, phosphorylated at Ser^552 (26).

[2] = test system: non-malignant hnNCs (human non-malignant neural cells); assay: Pharmacodynamic analysis (alamarBlue dose-response); type: cell-based; settings: three hnNCs, defined culture conditions
Method: as §1

[3] = test system: phospho-β-catenin (Ser552); assay: Immunofluorescence of nuclear phospho-β-catenin (Ser552); type: cell-based, human; settings: pGBMs
Excerpt: as §2

[4] = test system: pGBM #GNV019 grafts in Scid Beige mice; assay: Orthotopic tumor xenograft of pre-treated cells; type: in vivo; settings: niclosamide pre-treated #GNV019 cells, single exposure, n=6
[5] = test system: self-renewing, multipotent cells among pGBMs; assay: Neurosphere assay; type: cell-based, human; settings: single application 1.5 μM, vital cells collected at day 5
NFKBIA = assay: qRT-PCR of NFKBIA expression; type: cell-based, human; settings: NFKBIA+/− pGBMs and standard GBM models under dm conditions
Excerpt: On the other hand, it is known that the inhibition of NF-κB alone may not severely affect most solid tumors, rather that it may help to prevent resistance of cancer cells to chemotherapy (30, 31).

[6] = test system: mTOR signaling (phosphorylated S6-protein); assay: Western blot of phospho-S6 protein; type: cell-based, human; settings: day 5 after single-dose exposure, 4 pGBMs
Method: (§3) Cell extracts were prepared at 24 to 144 hours following compound application and processed as described (49). Blot membranes were incubated overnight at 4° C. with antibodies against Cyclin-D1 (1:1000; BD Pharmingen), cleaved-Notch1 (1:1000), or phospho-S6 protein (1:1000; all Cell signaling) respectively. After washing, peroxidase-coupled secondary antibodies (Santa Cruz) were added for 1 hour. After washing, blots were developed using the ECL system (Millipore).
as §2

[7] = test system: Notch pathway (cleaved Notch 1-protein); assay: Western blot of cleaved Notch 1; type: cell-based, human; settings: day 5 after single-dose exposure, 4 pGBMs
Method: as §3, §2

pGBMs [8] = assay: Proliferation kinetics / long-term cell growth (CellaVista); type: cell-based, human
[9] = test system: glioma/GBM cell lines LN229, T98G, U87, U138, U373; assay: Pharmacodynamic analysis (alamarBlue dose-response, IC50); type: cell-based, human; settings: defined media (dm) conditions
Method: as §1

[10] = test system: hnNCs co-cultured with pGBMs; assay: Co-culture of pGBMs and hnNCs; type: cell-based, human; settings: dm conditions, niclosamide 1 μM
[11] = test system: pGBM #046 grafts in Rag2Il2rg−/− mice; assay: Orthotopic tumor xenograft of pre-treated cells; type: in vivo; settings: niclosamide pre-treated #046 pGBMs, n=5
[12] = test system: pGBMs (primary glioblastoma cells); assay: Primary drug screening, alamarBlue metabolic activity; type: cell-based, human; settings: for Metabolic activity in % of the activity of a control without niclosamide: triplicate
Method: (§4) The tested compounds were supplied to cells proliferating in a linear-exponential phase. For all used cell samples, respective titration experiments were conducted before analysis. 24 hours after seeding 2-3×10^3 cells/well into laminin/poly-L-ornithine coated 96-well plates, cells were treated with 1 μM of each compound (stock solution 10 mM in DMSO). Control cells were treated with 0.01-0.1% DMSO. Five days after application, metabolic activity as a measure of cell viability was determined using the alamarBlue® assay according to the manufacturers recommendations (Life Technologies). Fluorescence was measured using an Infinite200 microplate reader (Tecan) at λex=540 nm and λem=590 nm. Experiments were performed in triplicates for each sample.
(§5) A library comprising of 160 synthetic and natural toxic substances was used for the screening approach. Four pGBMs, previously shown to maintain patient- and GBM-specific signatures and to contain sub-populations of tumor cells with and without stem cell qualities served as a discovery platform (#'s 023, 035, 046, 106; see (10)). Primary screening was conducted based on the alamarBlue® assay determining the metabolic activity as a measure for cellular viability at day 5 following single application of the library's compounds. In the experiments, every compound that reduced the mean metabolic activity of the 4 pGBMs below 50% of control levels was considered as a ‘hit’.

U87 glioma cell line = assay: as above; type: cell-based, human; settings: 1 µM niclosamide for 5 days, triplicate
Method: as §4, §5

pGBMs [13] = assay: Cell migration analysis (scratch assay); type: cell-based, human; settings: sub-toxic concentrations, 125 nM
Method: 5×10^4 cells were plated into 12-well-plates coated with laminin/poly-L-ornithine. […] Three days after plating (at a cell density of 70%), a scratch/wound was inflicted with a sterile pipette tip. Thereafter, culture media was exchanged to remove non-adherent cells. The Plaque Assay application of the CellaVista® system (Roche Diagnostics) was used according to the manufacturer's instructions to monitor the scratch/wound size over time. Triplicate analysis data±SEM.

[14] = test system: #155 non-malignant primary adult human neural progenitor cells (AHNPs); assay: Primary drug screening, alamarBlue metabolic activity; type: cell-based; settings: control cells 155; 1 µM niclosamide for 5 days, triplicate
Method: as §4
as §5, with “In the experiments, every compound that reduced the mean metabolic activity of the 4 pGBMs below 50% of control levels was considered as a ‘hit’.” left out

pGBMs [15] = assay: Annexin V/Hoechst FACS analysis; type: cell-based, human; settings: 5 days after application
[16] = test system: NF-κB-signaling (phospho-p65-NFκB protein); assay: Western blot of phospho-p65-NFκB (phospho-RELA); type: cell-based, human
[17] = studies in animals; cited from earlier work
Cyclin D1 = assay: Western blot of Cyclin D1; type: cell-based, human; settings: 24 hours post application
Method: as §3

pGBMs [18] = assay: Combinatorial pharmacodynamics niclosamide and TMZ (alamarBlue); type: cell-based; settings: Homo sapiens; 50 μM TMZ alone, pGBMs n=7, triplicate; read-out: Metabolic activity, % of control levels
Method: as §1

standard GBM cell lines = assay: as above; type: cell-based; settings: Homo sapiens; 50 μM TMZ alone, GBMs (standard cell lines); read-out: Metabolic activity, % of control levels
Method: as §1

NFKBIA+/− pGBMs = assay: Control study with NFκB activator in combinatorial treatment; type: cell-based, human; settings: NFKBIA+/− genotypes; niclo 1 μM, temozolomide 50 μM, TNF-a 50 ng/ml, 3 days
Method: FIG. 16: TNF-a antagonizes synergistic activity in NFKBIA+/− pGBMs. Graphs present data from combinatorial treatment paradigms in NFKBIA+/− (black) versus NFKBIA+/+ (gray) pGBMs at 3 days after compound application (niclo, 1 μM; temozolomide, 50 μM; TNF-a, 50 ng/ml). Insets, Western blot analyses of pREL A, indicating NF-kB pathway activity 24 hours after exposure to TNF-a, (Ta; 50 ng/ml) or 0.002% bovine serum albumin (C; control). ***p<0.001; **p<0.01; *p<0.05 (triplicates; mean±SD; one-way ANOVA and Tukey post hoc tests).

## O=C(Nc1ccc([N+](=O)[O-])cc1Cl)c1cc(Cl)ccc1O [niclosamide]
21 pGBMs; day 5, read-out: IC50 (50% reduction of relative metabolic activity), lower end of range over 21 pGBMs
  IC50: ≥ 0.3 µM
21 pGBMs; day 5, read-out: IC50 (50% reduction of relative metabolic activity), upper end of range over 21 pGBMs
  IC50: ≤ 1.2 µM
[1]
  Pro-apoptotic effects in non-malignant cells: lack of pro-apoptotic effects
WNT/CTNNB1 target genes
  Expression of β-catenin target genes: significantly decreased
[2]
  Sensitivity of non-malignant hnNCs compared with pGBMs: significantly lower level of sensitivity
[3]
  Nuclear phospho-β-catenin (Ser552) antigen: strong decrease
[4]
  Tumor forming capacity of grafted cells: no animal that received niclosamide pre-treated grafts showed evidence for tumor formation; also recorded: completely extinguished the tumor forming capacity
[5]
  Frequencies of self-renewing, multipotent (sphere-forming) cells: reduced the frequencies of self-renewing, multipotent cells among pGBMs strongly
NFKBIA
  NFKBIA expression: strongly up-regulate
[6]
  Levels of phosphorylated S6-protein: decrease in all samples
[7]
  Notch pathway activity (cleaved Notch 1-protein levels): concentration-dependent inhibition
pGBMs [8]; single application 1.5 μM
  Delay of recovery of vital cells from cytostatic effects (long-term growth): 14 to 23 days
pGBMs [8]; single exposure, 1.5 μM, pGBMs 046, 078, 106
  Growth delay: 5 days
[9]
  Niclosamide effects on standard GBM model cell lines under dm conditions: highly similar to findings obtained from pGBMs
[10]
  Sensitivity of hnNCs in co-culture with pGBMs: lower sensitivity of hnNCs can be confirmed
[11]; 10^6 cells into striatum
  Time after engraftment at which tumors developed / animals distressed: 153 ± 23 days
[11]
  Animals with tumor development: 4/5
[12]; Homo sapiens, 120 h, day 5 after single application, 1 μM of each compound, read-out: Mean metabolic activity of the 4 pGBMs, % of control levels ('hit' criterion)
  activity at 1 µM: < 50%
[12]; average of pGBMs 023, 035, 046, 106, 1 µM niclosamide for 5 days
  Metabolic activity in % of the activity of a control without niclosamide, pGBMs average: 26.4%
[12]; pGBM 023, 1 µM niclosamide for 5 days
  Metabolic activity in % of the activity of a control without niclosamide: 32.3%
[12]; pGBM 035, 1 µM niclosamide for 5 days
  Metabolic activity in % of the activity of a control without niclosamide: 5.6%
[12]; pGBM 046, 1 µM niclosamide for 5 days
  Metabolic activity in % of the activity of a control without niclosamide: 34.6%
[12]; pGBM 106, 1 µM niclosamide for 5 days
  Metabolic activity in % of the activity of a control without niclosamide: 33.0%
U87 glioma cell line
  Metabolic activity in % of the activity of a control without niclosamide: 66.5%
pGBMs [13]
  Effect on migration (scratch closure): anti-migratory effects
[14]
  Metabolic activity in % of the activity of a control without niclosamide: 75.4%
pGBMs [15]
  Vital cells (pro-apoptotic effect): strong and pGBM-selective decrease of vital cells
[16]; pGBMs #046 and #078 (NFKBIA+/−) only, of four cases
  NF-κB pathway (phospho-p65-NFκB protein levels): pathway inhibition
[17]
  Mutagenic, oncogenic, embryotoxic activity and cumulative effects: no mutagenic, oncogenic, or embryotoxic activity and no cumulative effects
Cyclin D1
  Cyclin D1 expression: strong decrease

## Cn1nnc2c(C(N)=O)ncn2c1=O [TMZ, temozolomide]
pGBMs [18]
  activity at 50 µM: 94 ± 4%
Standard GBM cell lines
  activity at 50 µM: 89 ± 8%

## TNFα
NFKBIA+/− pGBMs
  Effect on niclosamide/TMZ synergy: counteracted synergy effects
[16]; TNF-a 50 ng/ml, 24 hours
  NFκB activity in pGBMs: activated NFκB
